Assay results: US6916798B2, “Inhibitors of GSK-3 and uses thereof” (Vertex Pharmaceuticals Incorporated, priority 2001, dated 2005)
pKi: −log10 of the molar value.

Assays:
Assay type in all cases: biochemical
CDK-2/Cyclin A [1] = biological target: T1, CDK-2/Cyclin A (Homo sapiens, UniProt P24941); test: Inhibition of CDK-2, standard coupled enzyme assay; settings: 25 nM CDK-2/Cyclin A, 100 μM peptide, 30° C.
Description: Compounds were screened in the following manner for their ability to inhibit CDK-2 using a standard coupled enzyme assay (Fox et al (1998) Protein Sci 7, 2249).
To an assay stock buffer solution containing 0.1M HEPES 7.5, 10 mM MgCl2, 1 mM DTT, 25 mM NaCl, 2.5 mM phosphoenolpyruvate, […], […], […], […], and 100 μM peptide ([…], American Peptide, Sunnyvale, Calif.) was added a DMSO solution of a compound of the present invention to a final concentration of 30 μM. The resulting mixture was incubated at 30° C. for 10 min. The reaction was initiated by the addition of 10 μL of CDK-2/Cyclin A stock solution to give a final concentration of 25 nM in the assay. The rates of reaction were obtained by monitoring absorbance at 340 nm over a 5-minute read time at 30° C. using a BioRad Ultramark plate reader (Hercules, Calif.). The Ki values were determined from the rate data as a function of inhibitor concentration.

Aurora-2 = biological target: T2, Aurora-2 (Homo sapiens, UniProt O14965); test: Ki determination for the inhibition of Aurora-2, standard coupled enzyme assay; settings: 70 nM Aurora-2, 800 μM peptide LRRASLG, 30° C.
T2 sequence (O14965 1-403): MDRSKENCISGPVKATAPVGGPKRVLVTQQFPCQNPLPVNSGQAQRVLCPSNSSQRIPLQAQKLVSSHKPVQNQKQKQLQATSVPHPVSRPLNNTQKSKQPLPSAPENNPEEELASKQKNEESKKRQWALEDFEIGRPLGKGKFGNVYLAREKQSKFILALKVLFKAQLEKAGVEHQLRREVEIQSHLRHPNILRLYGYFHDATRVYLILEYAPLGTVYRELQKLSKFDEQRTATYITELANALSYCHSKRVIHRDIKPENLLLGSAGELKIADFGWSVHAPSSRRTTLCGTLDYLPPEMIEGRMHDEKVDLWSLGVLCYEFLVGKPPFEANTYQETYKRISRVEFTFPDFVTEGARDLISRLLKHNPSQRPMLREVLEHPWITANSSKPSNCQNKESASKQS
Description: Compounds were screened in the following manner for their ability to inhibit Aurora-2 using a standard coupled enzyme assay (Fox et al. (1998) Protein Sci. 7, 2249).
To an assay stock buffer solution containing 0.1M HEPES 7.5, 10 mM MgCl2, 1 mM DTT, 25 mM NaCl, 2.5 mM phosphoenolpyruvate, […], 30 mg/ml pyruvate kinase, 10 mg/ml lactate dehydrogenase, […], and 800 μM peptide (LRRASLG, American Peptide, Sunnyvale, Calif.) was added a DMSO solution of a compound of the present invention to a final concentration of 30 μM. The resulting mixture was incubated at 30° C. for 10 min. The reaction was initiated by the addition of 10 μL of Aurora-2 stock solution to give a final concentration of 70 nM in the assay. The rates of reaction were obtained by monitoring absorbance at 340 nm over a 5 minute read time at 30° C. using a BioRad Ultramark plate reader (Hercules, Calif.). The Ki values were determined from the rate data as a function of inhibitor concentration.

CDK-2/Cyclin A [2] = biological target: T1, CDK-2/Cyclin A; test: Inhibition of CDK-2, standard coupled enzyme assay; settings: for inhibition at 2 µM: 2 μM compound; for inhibition at 10 µM: read-out: CDK-2 % inhibition @ 10 μM, 10 μM compound
GSK-3β (AA 1-420) = biological target: T3, GSK-3β (AA 1-420) (Homo sapiens, UniProt P49841); test: Ki determination for the inhibition of GSK-3, standard coupled enzyme system; settings: 20 μM ATP, 300 μM peptide, 20 nM GSK-3β, 30° C.; read-out: Ki values for GSK-3
T3 construct: GSK-3β (AA 1-420)
T3 sequence (P49841 whole entry, the tested form may be a part): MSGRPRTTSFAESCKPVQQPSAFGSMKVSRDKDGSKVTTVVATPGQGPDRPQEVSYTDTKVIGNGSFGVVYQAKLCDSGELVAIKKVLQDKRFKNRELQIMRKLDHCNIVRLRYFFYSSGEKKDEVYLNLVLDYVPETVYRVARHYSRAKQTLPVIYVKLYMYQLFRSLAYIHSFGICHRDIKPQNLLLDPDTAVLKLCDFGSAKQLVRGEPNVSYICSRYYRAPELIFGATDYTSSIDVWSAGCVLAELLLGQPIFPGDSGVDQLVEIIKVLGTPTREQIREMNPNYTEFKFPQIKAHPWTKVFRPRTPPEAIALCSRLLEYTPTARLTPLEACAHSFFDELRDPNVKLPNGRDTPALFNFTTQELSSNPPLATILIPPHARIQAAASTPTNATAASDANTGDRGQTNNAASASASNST
Description: Final substrate concentrations in the assay were 20 μM ATP (Sigma Chemicals, St Louis, Mo.) and 300 μM peptide (HSSPHQS(PO3H2)EDEEE, American Peptide, Sunnyvale, Calif.). Reactions were carried out at 30° C. and 20 nM GSK-3β. Final concentrations of the components of the coupled enzyme system were 2.5 mM phosphoenolpyruvate, 300 μM NADH, 30 μg/ml pyruvate kinase and 10 μg/ml lactate dehydrogenase.
An assay stock buffer solution was prepared containing all of the reagents listed above with the exception of ATP and the test compound of interest. The assay stock buffer solution (175 μl) was incubated in a 96 well plate with 5 μl of the test compound of interest at final concentrations spanning 0.002 μM to 30 μM at 30 ° C. for 10 min. […] The reaction was initiated by the addition of 20 μl of ATP (final concentration 20 μM). Rates of reaction were obtained using a Molecular Devices Spectramax plate reader (Sunnyvale, Calif.) over 10 min at 30° C. The Ki values were determined from the rate data as a function of inhibitor concentration.

Structure (SMILES)	pKi (CDK-2/Cyclin A [1])	pKi (Aurora-2)	inhibition at 2 µM (CDK-2/Cyclin A [2]) [%]	inhibition at 10 µM (CDK-2/Cyclin A [2]) [%]	pKi (GSK-3β (AA 1-420))
CCOc1ccc(C2=NNC(=O)C2=NNc2ccc(N(CC)CC)cc2)cc1OCC [Compound 114, 5-(3,4-Diethoxy-phenyl)-4-[(4-diethylamino-phenyl)-hydrazono]-2,4-dihydro-pyrazol-3-one]	4.70 to 6.00	> 7.00	–	–	–
CCN(CC)c1ccc(NN=C2C(=O)NN=C2c2ccc(OCc3ccccc3)c(OC)c2)cc1 [Compound 117, 5-(4-Benzyloxy-3-methoxy-phenyl)-4-[(4-diethylamino-phenyl)-hydrazono]-2,4-dihydro-pyrazol-3-one]	4.70 to 6.00	6.00 to 7.00	–	–	–
COc1ccc(NN=C2C(=O)NN=C2c2ccc(OC)cc2)cc1 [Compound 46]	–	6.00 to 7.00	82	95	> 7.00
CCOc1ccc(C2=NNC(=O)C2=NNc2ccc(N(CC)CCO)cc2)cc1OCC [Compound 115, 5-(3,4-Diethoxy-phenyl)-4-({4-[ethyl-(2-hydroxy-ethyl)-amino]-phenyl}-hydrazono)-2,4-dihydro-pyrazol-3-one]	4.70 to 6.00	> 7.00	–	–	–
COc1ccc(C2=NNC(=O)C2=NNc2ccc(Cl)cc2)cc1OC [Compound 44]	–	–	87	94	> 7.00
COc1cc(C2=NNC(=O)C2=NNc2ccc(N3CCOCC3)cc2)ccc1OCc1ccccc1 [Compound 119, 5-(4-Benzyloxy-3-methoxy-phenyl)-4-[(4-morpholin-4-yl-phenyl)-hydrazono]-2,4-dihydro-pyrazol-3-one]	4.70 to 6.00	> 7.00	–	–	–
CCN(CCO)c1ccc(NN=C2C(=O)NN=C2c2ccc(OCc3ccccc3)c(OC)c2)cc1 [Compound 118, 5-(4-Benzyloxy-3-methoxy-phenyl)-4-({4-[ethyl-(2-hydroxy-ethyl)-amino]-phenyl}-hydrazono)-2,4-dihydro-pyrazol-3-one]	4.70 to 6.00	> 7.00	–	–	–
